Article PMC8012331, “Drug-induced hepatic steatosis in absence of severe mitochondrial dysfunction in HepaRG cells: proof of multiple mechanism-based toxicity” (Cell Biology and Toxicology, 2020)

Assays:
[1] = system: microsomal triglyceride transfer protein (MTTP); experiment: RT-qPCR MTTP mRNA in HepaRG cells; assay type: cell-based, human; settings: 4 days, vs control
Protocol: (§1) Total RNA was extracted with the Nucleospin RNA isolation system purchased from Macherey-Nagel (Düren, Germany), which included a DNase treatment step. Quantification of isolated RNAs was assessed using a Nanodrop 1000 (Thermo Fisher Scientific, Waltham, MA). RNAs were reverse-transcribed into cDNAs using the High-Capacity cDNA Reverse Transcription Kit purchased from Applied Biosystems (Woolston, UK). Gene expression was assessed by real-time quantitative PCR analysis (RT-qPCR) using SYBR Green PCR Master Mix (Applied Biosystems) and a 384-well QuantStudio™ 7 Flex Real-Time PCR System (Thermo Fisher Scientific). Sequences of the primers used to measure gene expression are presented in Supplementary Table 3. Expression of GAPDH was chosen as reference and the 2^−ΔΔCt calculation method was used to express the relative expression of each selected gene.

[2] = system: mitochondrial fatty acid oxidation (mtFAO); experiment: mtFAO with [U-14C]palmitic acid in HepaRG cells; assay type: cell-based, human; settings: 4 days, vs control
Protocol: (§2) Experiments were carried out on passages 9 to 16. […] DPEN was dissolved in water.
Results were normalized to total protein content determined using the Pierce BCA assay kit from Thermo Fischer Scientific (Waltham, MA). Results were expressed in comparison to control cells.

[3] = system: angiopoietin-like 3 (ANGPTL3); experiment: RT-qPCR ANGPTL3 mRNA in HepaRG cells; assay type: cell-based, human; settings: 4 days, vs control
Protocol: as §1

[4] = system: apoB secretion; experiment: apoB level in culture medium (ELISA), HepaRG cells; assay type: cell-based, human; settings: 4 days; for Effect on apoB secretion: culture medium, vs control
Protocol: as §2
Twenty-four hours after the last treatment, cell supernatants were removed and stored at − 80 °C until use for apolipoprotein measurement. ApoB level was measured using the Human Apolipoprotein B ELISA^pro kit from Mabtech (Nacka Strand, Sweden), according to the manufacturer’s instructions. Briefly, 50 μL of samples were diluted 2× in Apo ELISA buffer before a 2-h incubation in the precoated strip plates provided in the kit. The plates were washed and incubated 1 h with the biotinylated monoclonal anti-human apoB (LDL-11-biotin) antibody. The plates were then washed and incubated 1 h with a streptavidin–horseradish peroxidase conjugated antibody. After another washing, 3,3′,5,5′-tetramethylbenzidine (TMB) was used as substrate for 15 min before adding a stop solution. Absorbance at 450 nm was then measured using a POLARstar Omega microplate reader (BMG Labtech, Ortenberg). ApoB level was calculated utilizing a four-parameter standard curve, and normalized to the total cellular protein content and expressed in comparison to control cells.

[5] = system: HSPA5 (BIP); experiment: RT-qPCR HSPA5 mRNA in HepaRG cells; assay type: cell-based, human; settings: 4 days, vs control
Protocol: as §1

[6] = system: prolyl 4-hydroxylase subunit beta (P4HB, also known as PDI); experiment: RT-qPCR P4HB mRNA in HepaRG cells; assay type: cell-based, human; settings: 4 days, vs control
Protocol: as §1

[7] = system: DDIT3 (CHOP); experiment: RT-qPCR DDIT3 mRNA in HepaRG cells; assay type: cell-based, human; settings: 4 days, vs control
Protocol: as §1

[8] = system: de novo lipogenesis (DNL); experiment: DNL from [2-14C]acetic acid in HepaRG cells; assay type: cell-based, human; settings: 4 days, vs control
Protocol: as §2
DNL was assessed by measuring newly synthesized radiolabeled lipids from [2-^14C]acetic acid, using a protocol adapted from Byrne et al. ([2014]). Briefly, culture medium was removed and cells were washed with warm PBS. Next, cells were incubated for 3 h with phenol red-free William’s E medium containing 1% fatty acid-free BSA, [2-^14C]acetic acid (1850 Bq per well, corresponding to 19.4 pM) and 50 μM cold acetic acid. Medium was then gently removed and cells were washed with warm PBS before adding a mix of hexane/isopropanol (3:2; v/v). Cell culture plates were sealed and incubated for 1 h at room temperature for lipid extraction. After transfer of the plate content in 200-μL microtubes, hexane and PBS were added to have a hexane/isopropanol/PBS ratio of 6:2:3 (v/v/v). Microtubes were then centrifuged at 1000×g for 5 min and radiolabeled lipids were counted in the upper phase with a Tri-Carb 4910TR liquid scintillation counter (PerkinElmer). Results were normalized to total protein content and expressed in comparison to control cells.

[9] = system: ERN1 (IRE1α); experiment: RT-qPCR ERN1 mRNA in HepaRG cells; assay type: cell-based, human; settings: 4 days, vs control
Protocol: as §1

[10] = system: HepaRG cells; experiment: Neutral lipids with Nile red in HepaRG cells; settings: 4 days
Protocol: Briefly, HepaRG cells were seeded in 96-well plates at a density of 2.6 × 10^4 cells/cm^2 and were first incubated in William’s E medium supplemented with 10% FBS (50% FBS from Eurobio and 50% FBS from GE Healthcare), 100 U/mL penicillin, 100 μg/mL streptomycin, 2 mM glutamine, 5 μg/mL insulin, and 50 μM hydrocortisone hemisuccinate. […] During this 1-month period, the culture medium was renewed three times a week. […] HepaRG cells were next cultured in the same FBS/DMSO conditions and incubated for 4 days with each drug at different concentrations. Culture medium was renewed every day and all investigations were performed after 96 h (i.e., 24 h after the fourth treatment). These investigations were mostly performed in 96-well plates except for western blot analysis, for which 6-well plates were used. Experiments were carried out on passages 9 to 16. All drugs (except DPEN), etomoxir, lomitapide, tunicamycin, thapsigargin, and TUDCA were dissolved in DMSO. DPEN was dissolved in water.
Cells were then incubated with PBS containing 0.1 μg/mL Nile red for 30 min and washed once. […] For each well, four pictures were taken at a magnification of × 20 and analyzed with Columbus software (PerkinElmer) for quantification. These pictures were always taken in four different areas around the center of each well, and these areas were the same from one well to another, as programmed by the Columbus software. This software was also designed to count only living cells after exclusion of dying cells harboring nuclei with abnormal shape or altered Hoechst intensity. […] Neutral lipids were then normalized per number of nuclei and expressed relative to control cells. Examples of images used for neutral lipid quantification are shown in Supplementary Fig. 2.

[11] = system: apolipoprotein C3 (APOC3); experiment: RT-qPCR APOC3 mRNA in HepaRG cells; assay type: cell-based, human; settings: 4 days, vs control
Protocol: as §1

[12] = system: apolipoprotein B (APOB); experiment: RT-qPCR APOB mRNA in HepaRG cells; assay type: cell-based, human; settings: 4 days
Protocol: as §1

[13] = system: HepaRG cells; experiment: Number of nuclei (Hoechst 33342) in HepaRG cells; assay type: cell-based, human; settings: HepaRG cells treated with TUDCA alone
[14] = TUDCA 2 or 4 mM with 750 μM ALLO, 300 μM INDO, 300 μM RIF or 10 μM tunicamycin

tunicamycin
MTTP mRNA level [1]: reduced the mRNA level
Effect on mtFAO [2]: increased mtFAO
ANGPTL3 mRNA level [3]: reduced the mRNA level
Effect on apoB secretion [4]: reduced secretion of apoB
HSPA5 (BIP) mRNA level [5]: augmented the mRNA level
P4HB (PDI) mRNA level [6]: induced
DDIT3 (CHOP) mRNA level [7]: augmented the mRNA level
Effect on DNL [8]: strongly reduced DNL
ERN1 (IRE1α) mRNA level [9]: augmented the mRNA level
Accumulation of neutral lipids (steatosis) ([10]; selected concentrations (ATP loss < 30%, not above 100 × Cmax), vs control): increased neutral lipids
APOC3 mRNA level [11]: reduced the mRNA level

C[C@H](CCC(=O)NCCS(=O)(=O)O)[C@H]1CC[C@H]2[C@@H]3[C@@H](O)C[C@@H]4C[C@H](O)CC[C@]4(C)[C@H]3CC[C@]12C [TUDCA, tauroursodeoxycholic acid]
Effect on APOB mRNA level in cells cotreated with ALLO, INDO, RIF or tunicamycin [12, 14]: higher apoB mRNA level
Increase in the number of nuclei [13]: 38%
Effect on apoB secretion in cells cotreated with ALLO, INDO, RIF or tunicamycin [4, 14]: improved apoB secretion
Effect on neutral lipid accumulation induced by ALLO, INDO, RIF or tunicamycin [10, 14]: alleviate neutral lipid accumulation

C/C=C(/C)C(=O)O[C@H]1C(C)=C2[C@H]([C@@H]1OC(=O)CCCCCCC)[C@@](C)(OC(C)=O)C[C@H](OC(=O)CCC)[C@@]1(O)[C@H]2OC(=O)[C@@]1(C)O [thapsigargin]
MTTP mRNA level [1]: reduced the mRNA level
APOB mRNA level ([12]; vs control): also reduced APOB mRNA abundance
Effect on mtFAO [2]: increased mtFAO
ANGPTL3 mRNA level [3]: reduced the mRNA level
Effect on apoB secretion [4]: reduced secretion of apoB
HSPA5 (BIP) mRNA level [5]: augmented the mRNA level
P4HB (PDI) mRNA level [6]: induced
DDIT3 (CHOP) mRNA level [7]: augmented the mRNA level
Effect on DNL [8]: strongly reduced DNL
ERN1 (IRE1α) mRNA level [9]: augmented the mRNA level
APOC3 mRNA level [11]: reduced the mRNA level
